Results published in patent publication US6235891A, “Glucocorticoid receptor agonist and decreased PP5” (South Alabama Medical Science Foundation, priority 1999, dated 2001).

Experiments:
A549 cells = assay: [3H]-thymidine incorporation (DNA synthesis) in A549 cells; format: cell-based, human; conditions: 300 nM
Procedure: Cells were pulse-labeled with [^3 H]-thymidine for 5 hours at intervals over the next five days. Cells were lysed and [^3 H]-thymidine incorporation (indicative of DNA synthesis) was determined by liquid scintillation counting.
At timed intervals during the next 5 days, cells were pulse-labeled with [^3 H]-thymidine (0.5 μCi/ml) for 5 hours. […] The results given are the mean of three independent experiments.

[1] = system: glucocorticoid receptor (GR) binding to DNA; assay: Gel mobility shift assay of GR binding to GRE DNA, A549 nuclear extracts; format: cell-based, human; conditions: 300 nM ISIS 15534 compared with 1 μM dexamethasone
Procedure: Nuclear extracts and gel mobility shift assays were conducted as previously described (Li et al. 1991) with slight modifications (Zuo et al. 1998). Briefly, A549 cells were cultured in 60 mm dishes and treated with ISIS 15521 or ISIS 15534 antisense oligonucleotides (Zuo et al. 1998) three dishes per group. Six hours after treatment, the cells were collected, washed with ice-cold PBS, and incubated in buffer A (10 mM HEPES, pH 7.9, 10 mM KCl, 0.1 mM EDTA, 0.1 mM EGTA, 1 mM DTT, 0.5 mM PMSF) at 4° C. for 15 minutes. The cells were then lysed by adding 25 μl 10% NP-40 and vigorous vortexing for 10 seconds. Nuclei were precipitated by centrifugation, resuspended in ice-cold buffer B (20 mM HEPES, pH 7.9, 0.4 M NaCl, 1 mM EDTA, 1 mM EGTA, 1 mM DTT, 1 mM PMSF), incubated at 4° C. for 60 minutes with gentle shaking, and then subjected to centrifugation at 4° C. for 5 minutes. The supernatant was collected, aliquoted, and stored at -80° C. […]
Referring to FIG. 3A, the inhibition of PP5 expression enhances glucocorticoid receptor binding to DNA. […] The relative light units of the cell extract were calculated as an average of three independent experiments, performed in triplicate, and presented as relative luciferase activity with error bars indicating SD. […]

ISIS 15534: chimeric PP5 antisense oligonucleotide, P=O wings, P=S deoxy gap; GGGCCCTATTGCTTGAGTGG, SEQ ID NO: 12 (sugars by position and backbone not given here; chimeric, phosphodiester wings, phosphorothioate deoxy gap)
Decrease in [3H]-thymidine incorporation compared to control (A549 cells; day 2): approximately 85%
Decrease in [3H]-thymidine incorporation compared to control (A549 cells; day 3): ~88%
Decrease in [3H]-thymidine incorporation compared to control (A549 cells; day 4): ~62%
[3H]-thymidine incorporation relative to untreated cells (A549 cells; day 5): approximately equivalent in treated and untreated cells
GR/GRE gel shift [1]: more pronounced shift
